Usually IC50 stands for the point on the concentration scale where inhibition reaches its midpoint.

Assay [1] concerns the target T1, Neuropeptide Y receptor type 1 (Homo sapiens, UniProt P25929).
T1 sequence (P25929 whole entry): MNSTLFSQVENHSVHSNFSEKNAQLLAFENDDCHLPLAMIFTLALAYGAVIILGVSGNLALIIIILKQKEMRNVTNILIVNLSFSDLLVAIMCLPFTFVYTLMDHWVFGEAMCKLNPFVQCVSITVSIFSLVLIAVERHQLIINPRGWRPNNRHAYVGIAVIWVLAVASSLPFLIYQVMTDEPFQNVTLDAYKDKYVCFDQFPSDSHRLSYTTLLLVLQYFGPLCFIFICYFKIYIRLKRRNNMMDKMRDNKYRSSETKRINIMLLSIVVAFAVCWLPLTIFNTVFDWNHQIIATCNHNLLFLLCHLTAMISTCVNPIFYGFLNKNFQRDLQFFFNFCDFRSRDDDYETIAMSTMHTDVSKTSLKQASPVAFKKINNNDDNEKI
Type of assay: cell membranes, Membrane. As to conditions: sk-n-mc.

Assay [2] concerns the target T2, Muscarinic acetylcholine receptor M2 (Homo sapiens, UniProt P08172).
T2 sequence (P08172 whole entry): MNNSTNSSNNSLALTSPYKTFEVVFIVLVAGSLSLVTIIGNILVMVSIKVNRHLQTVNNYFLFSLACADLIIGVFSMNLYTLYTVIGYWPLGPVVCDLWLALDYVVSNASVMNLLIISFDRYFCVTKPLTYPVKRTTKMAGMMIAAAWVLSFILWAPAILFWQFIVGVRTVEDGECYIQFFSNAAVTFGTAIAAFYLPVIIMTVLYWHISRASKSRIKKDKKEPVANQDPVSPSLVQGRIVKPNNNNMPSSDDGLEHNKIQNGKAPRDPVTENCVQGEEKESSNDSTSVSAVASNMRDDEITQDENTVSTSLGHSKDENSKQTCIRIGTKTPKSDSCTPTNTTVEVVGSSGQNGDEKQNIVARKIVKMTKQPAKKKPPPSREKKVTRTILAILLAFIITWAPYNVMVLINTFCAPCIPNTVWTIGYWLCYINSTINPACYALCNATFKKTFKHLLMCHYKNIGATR
In kind it is cell membranes, CHO-K1, Membrane. The note with it: cho-k1.

The target in assay [3] is T3, 3-hydroxy-3-methylglutaryl-coenzyme A reductase (Homo sapiens, UniProt P04035).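 Further: enzyme inhibition assay of HMG-CoA reductase using radiolabeled [14C]HMG-CoA as substrate.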
T3 sequence (P04035 whole entry): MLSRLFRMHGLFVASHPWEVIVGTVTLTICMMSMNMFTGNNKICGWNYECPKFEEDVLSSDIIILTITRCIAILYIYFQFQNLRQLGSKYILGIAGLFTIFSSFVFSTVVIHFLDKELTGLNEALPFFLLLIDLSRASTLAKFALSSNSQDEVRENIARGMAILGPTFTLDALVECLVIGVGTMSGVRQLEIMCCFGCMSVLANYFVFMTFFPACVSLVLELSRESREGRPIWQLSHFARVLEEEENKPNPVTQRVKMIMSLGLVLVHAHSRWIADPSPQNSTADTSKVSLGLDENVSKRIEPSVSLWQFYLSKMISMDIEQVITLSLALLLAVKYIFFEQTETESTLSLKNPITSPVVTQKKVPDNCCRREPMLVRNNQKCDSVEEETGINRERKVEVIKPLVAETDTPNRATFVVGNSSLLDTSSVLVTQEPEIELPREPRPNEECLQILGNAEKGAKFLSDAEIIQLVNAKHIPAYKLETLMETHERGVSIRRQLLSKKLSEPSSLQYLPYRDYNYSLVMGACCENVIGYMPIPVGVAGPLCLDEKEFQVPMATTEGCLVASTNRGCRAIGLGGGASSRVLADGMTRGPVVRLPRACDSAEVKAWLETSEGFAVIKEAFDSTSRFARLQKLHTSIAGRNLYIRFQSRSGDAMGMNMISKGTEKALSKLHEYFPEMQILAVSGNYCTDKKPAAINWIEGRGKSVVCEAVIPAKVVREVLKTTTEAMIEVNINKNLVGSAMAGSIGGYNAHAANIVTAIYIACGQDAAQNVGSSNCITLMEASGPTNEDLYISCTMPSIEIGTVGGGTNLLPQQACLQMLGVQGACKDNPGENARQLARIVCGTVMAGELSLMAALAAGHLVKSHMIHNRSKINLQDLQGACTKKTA
On the set-up: species or system Escherichia coli.

Assay [4] addresses T4, Polyunsaturated fatty acid lipoxygenase ALOX15 (Oryctolagus cuniculus, UniProt P12530).
T4 sequence (P12530 whole entry): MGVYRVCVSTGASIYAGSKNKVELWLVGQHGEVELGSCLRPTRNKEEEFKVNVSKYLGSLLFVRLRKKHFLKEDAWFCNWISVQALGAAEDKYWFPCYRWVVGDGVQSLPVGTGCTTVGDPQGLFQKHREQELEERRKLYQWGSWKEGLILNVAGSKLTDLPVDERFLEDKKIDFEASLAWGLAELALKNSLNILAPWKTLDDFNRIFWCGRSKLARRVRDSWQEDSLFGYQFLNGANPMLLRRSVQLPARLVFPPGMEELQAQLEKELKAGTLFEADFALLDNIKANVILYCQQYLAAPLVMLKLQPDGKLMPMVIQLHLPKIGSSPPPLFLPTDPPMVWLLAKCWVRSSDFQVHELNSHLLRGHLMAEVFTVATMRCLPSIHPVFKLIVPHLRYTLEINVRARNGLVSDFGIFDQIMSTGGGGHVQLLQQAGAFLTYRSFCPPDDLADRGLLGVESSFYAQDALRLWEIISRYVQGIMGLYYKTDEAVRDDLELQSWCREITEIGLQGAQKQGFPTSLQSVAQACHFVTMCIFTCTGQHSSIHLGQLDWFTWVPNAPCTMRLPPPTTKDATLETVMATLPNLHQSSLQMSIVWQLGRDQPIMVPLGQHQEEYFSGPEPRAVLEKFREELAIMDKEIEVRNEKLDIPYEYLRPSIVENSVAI
Kind of assay: biochemical. Type of assay: tissue-based, Reticulocytes. As to conditions: reticulocytes.

For another assay, the target named is T5, B2 bradykinin receptor (Homo sapiens, UniProt P30411).
T5 sequence (P30411 whole entry): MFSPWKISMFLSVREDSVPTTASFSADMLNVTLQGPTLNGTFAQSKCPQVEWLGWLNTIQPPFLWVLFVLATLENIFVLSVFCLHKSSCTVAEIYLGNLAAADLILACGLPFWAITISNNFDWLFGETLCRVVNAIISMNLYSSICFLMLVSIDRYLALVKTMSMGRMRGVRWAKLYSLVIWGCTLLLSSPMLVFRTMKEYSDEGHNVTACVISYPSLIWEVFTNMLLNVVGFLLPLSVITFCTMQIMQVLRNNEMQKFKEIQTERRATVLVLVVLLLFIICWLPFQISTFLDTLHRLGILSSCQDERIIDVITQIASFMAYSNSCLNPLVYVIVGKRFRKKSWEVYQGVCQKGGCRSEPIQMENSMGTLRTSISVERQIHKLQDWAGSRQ
Type of assay: cell membranes, Membrane. As to conditions: chem-1.

The target of assay [5] is Aldo-keto reductase family 1 member B1 (Rattus norvegicus, UniProt P07943). In words: biochemical. In kind it is tissue-based, Lens of camera-type eye.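 Further: inhibition of aldose reductase enzyme activity, measured with DL-glyceraldehyde as the substrate.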
Further: in other assays of this panel Not Active means under 50% inhibition at 10 µM.

As to `O=C1C[C@@H]2OCC=C3CN4CC[C@]56c7ccccc7N1[C@H]5[C@H]2[C@H]3C[C@H]46` [STRYCHNINE], the IC50 entry (in assay [1]; in assay [2]; in assay [3]; in assay [4]; against B2 bradykinin receptor; in assay [5]) was “Not Active” in each case.
For the compound `C[N+](C)(C)CCOC(=O)CCC(=O)OCC[N+](C)(C)C.[Cl-].[Cl-]` [SUCCINYLCHOLINE CHLORIDE], the IC50 result (in assay [1]; in assay [2]; in assay [3]; in assay [4]; against B2 bradykinin receptor; in assay [5]) was “Not Active” in each case.
On to `Nc1ccc(S(=O)(=O)NC(=O)c2ccccc2)cc1` [SULFABENZAMIDE], for which the IC50 entry (in assay [1]; in assay [2]; in assay [3]; in assay [4]; against B2 bradykinin receptor; in assay [5]) was “Not Active” throughout.
In the case of `CCCCCCCCNC(C)C(O)c1ccc(SC(C)C)cc1` (stereo not drawn) [SULOCTIDIL], the IC50 result (in assay [1]; in assay [2]; in assay [3]; in assay [4]; against B2 bradykinin receptor; in assay [5]) was “Not Active” throughout.
As for `O=c1[nH]c(=O)n(C2CCCO2)cc1F` (stereo not drawn) [TEGAFUR], the IC50 entry (in assay [1]; in assay [2]; in assay [3]; in assay [4]; on B2 bradykinin receptor; in assay [5]) was “Not Active” throughout.
On to `CC(=N)S` [THIOACETAMIDE], for which the IC50 entry (in assay [1]; in assay [2]; in assay [3]; in assay [4]; against B2 bradykinin receptor; in assay [5]) was “Not Active” each time.
`Cc1ccc(C(=O)c2ccc(CC(=O)O)n2C)cc1` [TOLMETIN]: the IC50 entry was “Not Active” in assay [1]; “Not Active” in assay [2]; “Not Active” in assay [3]; “Not Active” in assay [4]; “Not Active” at B2 bradykinin receptor; 2.15 µM in assay [5] (read-out: IC50).
As for `CC(=O)OCC(COC(C)=O)OC(C)=O` [TRIACETIN], the IC50 entry (in assay [1]; in assay [2]; in assay [3]; in assay [4]; at B2 bradykinin receptor; in assay [5]) was “Not Active” in each case.
As for `CN1CCN(CCCN2c3ccccc3Sc3ccc(C(F)(F)F)cc32)CC1` [TRIFLUOPERAZINE], the IC50 entry (in assay [1]; in assay [2]; in assay [3]; in assay [4]; on B2 bradykinin receptor; in assay [5]) was “Not Active” in each case.
With TRANSPLATIN, the concentration for half-maximal inhibition (IC50) result (in assay [1]; in assay [2]; in assay [3]; in assay [4]; at B2 bradykinin receptor; in assay [5]) was “Not Active” each time. The Ki entry (in assay [1]; in assay [2]; in assay [3]; in assay [4]; on B2 bradykinin receptor; in assay [5]) was “Not Active” in each case.
With ZIRCONIUM(IV) CHLORIDE, the IC50 entry (in assay [1]; in assay [2]; in assay [3]; in assay [4]; at B2 bradykinin receptor; in assay [5]) was “Not Active” in each case. Besides, the Ki result (in assay [1]; in assay [2]; in assay [3]; in assay [4]; at B2 bradykinin receptor; in assay [5]) was “Not Active” throughout.

These data come from ChEMBL document CHEMBL1909046, “DrugMatrix in vitro pharmacology data”.
